The results in this text go back to article PMC8808171, “Nonselective TRPC channel inhibition and suppression of aminoglycoside-induced premature termination codon readthrough by the small molecule AC1903” (The Journal of Biological Chemistry, 2022).

“Also recorded” adds a separate entry of the source.

The subject of series [1] is A498 cells. The series can be described thus: EA-mediated A498 cytotoxicity (WST-1 cell viability assay). The series is classed as cell-based. The conditions noted are these: AC1903 100 μM; 100 nM EA; 8 h. The protocol: Cell viability assays were carried out using WST-1 Cell Proliferation Reagent (Merck). A498 cells were plated onto clear 96-well plates at 4000 cells per well and left to adhere for 24 h. Media was then removed, and replaced with fresh media containing 100 nM EA, in presence of either DMSO or 0.1 to 100 μM AC1903. Control wells were treated with vehicle (DMSO) only. To exclude any potential cytotoxic effects of AC1903 itself, cells were incubated with 0.1 to 100 μM AC1903 in absence of EA. Cells were treated in triplicate. Cells were incubated with compounds for 8 h. After 8 h, treatment media was removed and media containing WST-1 reagent (10 μl reagent +100 μl media per well) was added to each well and incubated for 1.5 h at 37 °C. Blank wells contained media and WST-1 reagent (no cells). […] Absorbance was then read at 440 nm and 650 nm (reference wavelength). To analyze data, the value of the 650 nm was subtracted from that of the 440 nm reading. Values across triplicate wells were averaged, and the value from the blank wells subtracted to account for background absorbance. […]
(§1) Inhibition of G418-induced premature stop codon readthrough
A498 cytotoxicity . […] Cell viability was calculated as % of control, and the effect of AC1903 was compared to control (0 µM ) (scatter plots showing data from three independent experiments; bars represent mean ± SD; n = 3). […]

In series [2] the test system is WT HEK 293 cells. Nature of the series: Carbachol-mediated [Ca2+]i response in WT HEK 293 cells. The settings on record: carbachol (100 μM), n/N = 1/6. The series is classed as cell-based. On the procedure: To test the effect of AC1903 on TRPC4 channels, we initially attempted to use carbachol to activate TRPC4:C4 channels, in line with patch-clamp experiments reported by Zhou et al. ([29]). […] Therefore, we used the selective TRPC1/4/5 activator EA and the physiological TRPC4/5 activator S1P instead.
[Ca^2+]i recordings were carried out using the ratiometric Ca^2+ dye Fura-2. 24 h prior to experiments, cells were plated either onto black, clear bottom poly-D-lysine-coated 96-well plates (HEK cells) or clear 96-well plates (A498 cells, CHO cells) at 50,000 cells per well (HEK cells) or 20,000 cells per well (A498 cells, CHO cells). For tetracycline-inducible HEK T-REx cells, protein expression was induced with tetracycline (TRPC channels: 1 μg ml^−1; hPiezo1: 100 ng ml^−1) at this point. To load cells with the Fura-2 dye, media was removed and cells were incubated with standard bath solution (SBS) containing 2 μM Fura-2 acetoxymethyl ester (Fura-2 AM; Thermo Fisher Scientific) and 0.01% pluronic acid for 1 h at 37 °C. SBS contained (in mM): NaCl 130, KCl 5, glucose 8, HEPES 10, MgCl2 1.2 and CaCl2 1.5. After this incubation, cells were washed twice with fresh SBS. […]
as §1
Figure S7. […] Responses were calculated at 70-80 s compared to [Ca2+]i at baseline (0-55 s). […]

Usually IC50 stands for the concentration at which inhibition is half-maximal. A lower IC50 goes with greater potency. On to `c1ccc(Cn2c(NCc3ccco3)nc3ccccc32)cc1` [AC1903], for which, in series [1], the “effect on EA-mediated A498 cytotoxicity” value is recorded as “inhibits EA-mediated; also recorded: inhibited EA-mediated A498 cytotoxicity”. The molecule further returned an IC50 in series [2] of 20 µM.
